This note sets out measurements from PMC8585119, “MATE-Type Proteins Are Responsible for Isoflavone Transportation and Accumulation in Soybean Seeds” (International Journal of Molecular Sciences, 2021).

Numbering of substitutions follows the chain as printed.

Common to all, as to test: yeast uptake assay, UPLC of cell extract versus empty vector
What all share (type): cell-based
Holding throughout (conditions): fed as 200 uM mixture of genistein, daidzein and glycitein; PBS pH 7.4, 30 °C, overnight/24 h; whole yeast cells

One assay addresses T1, GmMATE1^C08 (Glycine max, UniProt I1N8G7).
T1 construct: gene LOC100775619; full-length CDS in pGBKT7 without GAL4 BD, ADH1 promoter, in yeast Y2HGold; no tag stated
T1 sequence (I1N8G7 1-495): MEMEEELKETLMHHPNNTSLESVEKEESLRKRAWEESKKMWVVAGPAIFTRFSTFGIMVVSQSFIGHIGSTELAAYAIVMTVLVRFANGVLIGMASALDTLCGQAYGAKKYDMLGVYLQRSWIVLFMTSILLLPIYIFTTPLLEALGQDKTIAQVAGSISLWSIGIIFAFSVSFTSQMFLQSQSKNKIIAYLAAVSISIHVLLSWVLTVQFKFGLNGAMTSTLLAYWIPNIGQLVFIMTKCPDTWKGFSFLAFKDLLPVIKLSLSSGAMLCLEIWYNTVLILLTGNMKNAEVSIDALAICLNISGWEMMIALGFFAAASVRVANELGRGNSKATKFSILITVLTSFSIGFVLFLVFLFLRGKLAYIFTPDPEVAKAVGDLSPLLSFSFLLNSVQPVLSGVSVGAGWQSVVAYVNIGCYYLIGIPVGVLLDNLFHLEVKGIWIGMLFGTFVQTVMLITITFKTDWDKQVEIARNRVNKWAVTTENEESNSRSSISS

For another assay, the target named is T2, GmMATE1^W05 (Glycine soja, UniProt A0A191UP88).
T2 construct: gene MATE1; full-length CDS in pGBKT7 without GAL4 BD, ADH1 promoter, in yeast Y2HGold; no tag stated
T2 sequence (A0A191UP88 1-495): T1 sequence (I1N8G7 1-495) with V206L, N330S

The next assay addresses T3, GmMATE2^W05 (Glycine soja, UniProt A0A191UP89).
T3 construct: gene MATE2; full-length CDS in pGBKT7 without GAL4 BD, ADH1 promoter, in yeast Y2HGold; no tag stated
T3 sequence (A0A191UP89 1-496): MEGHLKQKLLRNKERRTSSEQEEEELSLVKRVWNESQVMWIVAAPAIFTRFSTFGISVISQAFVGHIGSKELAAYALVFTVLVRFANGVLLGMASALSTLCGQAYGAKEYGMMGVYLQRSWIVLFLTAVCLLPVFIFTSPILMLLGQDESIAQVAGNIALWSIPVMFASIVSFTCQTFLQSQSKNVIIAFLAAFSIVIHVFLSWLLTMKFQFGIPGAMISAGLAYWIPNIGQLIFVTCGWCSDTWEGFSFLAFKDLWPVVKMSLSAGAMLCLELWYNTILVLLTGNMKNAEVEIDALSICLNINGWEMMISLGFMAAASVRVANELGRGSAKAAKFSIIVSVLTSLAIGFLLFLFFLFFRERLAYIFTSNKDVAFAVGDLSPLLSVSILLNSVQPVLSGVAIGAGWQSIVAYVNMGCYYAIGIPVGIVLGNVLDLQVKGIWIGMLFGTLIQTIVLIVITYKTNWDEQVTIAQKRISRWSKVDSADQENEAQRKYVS

The target in another assay is T4, GmMATE2^C08 (Glycine max, UniProt I1N8G8).
T4 construct: gene LOC100796360; full-length CDS in pGBKT7 without GAL4 BD, ADH1 promoter, in yeast Y2HGold; no tag stated
T4 sequence (I1N8G8 1-496): T3 sequence (A0A191UP89 1-496) with S483N

On to `O=c1c(-c2ccc(O)cc2)coc2cc(O)ccc12` [daidzein], for which the “yeast uptake assay, UPLC of cell extract versus empty vector” value at GmMATE1^C08 was “yeasts expressing GmMATE1 and GmMATE2 significantly accumulated more of all three metabolites”; on GmMATE1^W05, “allelic forms from either the cultivated soybean C08 or the wild soybean W05 exhibited similar”; on GmMATE2^W05, “allelic forms from either the cultivated soybean C08 or the wild soybean W05 exhibited similar”; at GmMATE2^C08 it was “yeasts expressing GmMATE1 and GmMATE2 significantly accumulated more of all three metabolites”.
In the case of `O=c1c(-c2ccc(O)cc2)coc2cc(O)cc(O)c12` [genistein], the “yeast uptake assay, UPLC of cell extract versus empty vector” value at GmMATE1^C08 is “yeasts expressing GmMATE1 and GmMATE2 significantly accumulated more of all three metabolites”; at GmMATE1^W05, “allelic forms from either the cultivated soybean C08 or the wild soybean W05 exhibited similar”; on GmMATE2^W05, “allelic forms from either the cultivated soybean C08 or the wild soybean W05 exhibited similar”; on GmMATE2^C08 it was “yeasts expressing GmMATE1 and GmMATE2 significantly accumulated more of all three metabolites”.
